Test results from patent US11446394B2, “Lipid nanoparticle formulations comprising lipidated cationic peptide compounds for nucleic acid delivery” (NUTCRACKER THERAPEUTICS, INC., priority 2018, dated 2022).

Experiments:
HeLa cells = assay: In vitro firefly luciferase (Fluc) expression after treatment with Fluc mRNA/amino lipidated peptoid formulations; type: cell-based; details: peptoid:Fluc mRNA 5:1 w/w, 100 ng/well; for Luciferase Expression (RLU) 6 h: 6 hours of treatment; for Luciferase Expression (RLU) 24 h: 24 hours of treatment
Description: The efficacy of mRNA/amino lipidated peptoid formulations was evaluated in vitro based on their ability to deliver the firefly luciferase (Fluc) reporter gene to cultured cells. The amino lipidated cationic peptoids 1-36 of Example 2 were individually combined with Fluc mRNA at a 5:1 w/w ratio, and the resulting particles were added to cultured HeLa cells at a dose of 100 ng/well (in 100 μL total volume). The resulting luciferase expression (RLU) was measured by a luminescence plate reader after 6 hours and 24 hours of treatment.

[1] = mRNA encapsulation by Qubit RNA HS dye fluorescence before and after Triton X-100 lysis; type: physicochemical; details: percentage of mRNA encapsulation; Fluc mRNA/peptoid formulation, 5:1 mass ratio peptoid:cargo
Description: (§1) To prepare nanoparticle formulations, the tertiary amino lipidated and/or PEGylated cationic peptide compound is mixed by pipetting with nucleic acid at a mass ratio between approximately 1:1 (peptide compound:cargo) and 20:1. Prior to formulation, tertiary amino lipidated and/or PEGylated cationic peptide compounds and cargo (such as nucleic acid) are diluted in ethanol and acidic buffer (PBS adjusted to pH 5.5 with 0.1 M HCl) respectively to a volume ratio of 1:3 and to target a final cargo concentration of approximately 0.05 mg/mL to 0.2 mg/mL. The exemplary amino lipidated cationic peptoids 1-36 described in Example 2 were combined with firefly luciferase (Fluc) mRNA to form nanoparticle compositions to be evaluated for therapeutic and/or prophylactic purposes in vitro or in vivo. The formulations were prepared according to the protocol of Example 3 and mixed by simple pipetting. The mRNA/peptoid formulation at a 5:1 mass ratio of peptoid:cargo were evaluated by dynamic light scattering (DLS) in order to determine the volume average particle size/diameter (nm) of the mRNA/peptoid complex and the size polydispersity index (PDI) within the formulation. The percentage of mRNA encapsulation for each formulation of the exemplary compounds were determined by fluorescence of the Qubit RNA HS (Invitrogen) dye before and after lysis of particles by Triton X-100.

[2] = Dynamic light scattering of Fluc mRNA/peptoid formulations (particle size, PDI); type: physicochemical; details: Fluc mRNA/peptoid formulation, 5:1 mass ratio peptoid:cargo; for Size PDI: size polydispersity index by DLS; for Size (nm): volume average particle size/diameter by DLS
Description: as §1

Structure (SMILES) | % Encapsulation [1] [%] | Size PDI [2] | Size (nm) [2] [nm] | Luciferase Expression (RLU) 6 h (HeLa cells) [RLU] | Luciferase Expression (RLU) 24 h (HeLa cells) [RLU]
CCCCCCCCCCN(CC(N)=O)C(=O)CN(CCCCCCCCCC)C(=O)CN(CCc1ccccc1)C(=O)CN(CCc1ccccc1)C(=O)CN(CCN)C(=O)CN(CCc1ccccc1)C(=O)CN(CCc1ccccc1)C(=O)CN(CCN)C(=O)CN(CCc1ccccc1)C(=O)CN(CCc1ccccc1)C(=O)CN(CCN)C(=O)CN(CCc1ccccc1)C(=O)CN(CCc1ccccc1)C(=O)CN(CCN)C(=O)CN(CCc1ccccc1)C(=O)CN(CCc1ccccc1)C(=O)CNCCN [Compound 12] | 86.5 | 0.211 | 224.4 | 4.04E+02 | 5.71E+02
CCCCCCCCCCN(CC(N)=O)C(=O)CN(CCCCCCCCCC)C(=O)CN(CCCCCCCCCC)C(=O)CN(CCCCCCCCCC)C(=O)CN(CCCCCCCCCC)C(=O)CN(CCc1ccccc1)C(=O)CN(CCc1ccccc1)C(=O)CN(CCN)C(=O)CN(CCc1ccccc1)C(=O)CN(CCc1ccccc1)C(=O)CN(CCN)C(=O)CN(CCc1ccccc1)C(=O)CN(CCc1ccccc1)C(=O)CNCCN [Compound 19] | 70.9 | 0.158 | 276 | 8.20E+03 | 1.09E+04
CCCCCCCCCCN(CC(=O)N(CC(=O)N(CCCCCCCCCC)CC(=O)N(CC(N)=O)CC(CC)CCCC)CC(CC)CCCC)C(=O)CN(CCc1ccccc1)C(=O)CN(CCc1ccccc1)C(=O)CN(CCN)C(=O)CN(CCc1ccccc1)C(=O)CN(CCc1ccccc1)C(=O)CN(CCN)C(=O)CN(CCc1ccccc1)C(=O)CN(CCc1ccccc1)C(=O)CNCCN (stereo not shown) [Compound 24] | 87.0 | 0.135 | 161 | 1.79E+04 | 3.43E+04

Now from value to molecule, other results behind:

% Encapsulation [1] [%] | Size PDI [2] | Size (nm) [2] [nm] | Structure (SMILES) | Luciferase Expression (RLU) 6 h (HeLa cells) [RLU] | Luciferase Expression (RLU) 24 h (HeLa cells) [RLU]
82.5 | 0.077 | 234 | CCCCCCCCCCN(CC(N)=O)C(=O)CN(CCCCCCCCCC)C(=O)CN(CCCCCCCCCC)C(=O)CN(CCCCCCCCCC)C(=O)CN(CCc1ccccc1)C(=O)CN(CCc1ccccc1)C(=O)CN(CCN)C(=O)CN(CCc1ccccc1)C(=O)CN(CCc1ccccc1)C(=O)CN(CCN)C(=O)CN(CCc1ccccc1)C(=O)CN(CCc1ccccc1)C(=O)CNCCN [Compound 8] | 1.10E+04 | 1.33E+04
65.4 | 0.174 | 386.5 | CCCCCCCCCCN(CC(N)=O)C(=O)CN(CCCCCCCCCC)C(=O)CN(CCCCCCCCCC)C(=O)CN(CCCCCCCCCC)C(=O)CN(CCCCCCCCCC)C(=O)CN(CCc1ccccc1)C(=O)CN(CCc1ccccc1)C(=O)CN(CCN)C(=O)CN(CCc1ccccc1)C(=O)CN(CCc1ccccc1)C(=O)CN(CCN)C(=O)CN(CCc1ccccc1)C(=O)CN(CCc1ccccc1)C(=O)CN(CCN)C(=O)CN(CCc1ccccc1)C(=O)CN(CCc1ccccc1)C(=O)CNCCN [Compound 21] | 3.45E+03 | 1.24E+04
24.8 | 0.237 | 343.4 | CCCCCCCCCCN(CC(N)=O)C(=O)CN(CCCCCCCCCC)C(=O)CN(CCCCCCCCCC)C(=O)CN(CCCCCCCCCC)C(=O)CN(CCc1ccccc1)C(=O)CN(CCc1ccccc1)C(=O)CN(CCCN)C(=O)CN(CCc1ccccc1)C(=O)CN(CCc1ccccc1)C(=O)CN(CCCN)C(=O)CN(CCc1ccccc1)C(=O)CN(CCc1ccccc1)C(=O)CN(CCCN)C(=O)CN(CCc1ccccc1)C(=O)CN(CCc1ccccc1)C(=O)CNCCCN [Compound 29] | 1.64E+03 | 6.72E+03
58.0 | 0.295 | 348.4 | CCCCCCCCCCN(CC(N)=O)C(=O)CN(CCCCCCCCCC)C(=O)CN(CCCCCCCCCC)C(=O)CN(CCCCCCCCCC)C(=O)CN(CCc1ccccc1)C(=O)CN(CCc1ccccc1)C(=O)CN(CC1CCCN1)C(=O)CN(CCc1ccccc1)C(=O)CN(CCc1ccccc1)C(=O)CN(CC1CCCN1)C(=O)CN(CCc1ccccc1)C(=O)CN(CCc1ccccc1)C(=O)CNCC1CCCN1 (stereo not shown) [Compound 34] | 1.95E+03 | 2.71E+03
38.0 | 0.486 | 359.8 | CCCCCCCCCCN(CC(N)=O)C(=O)CN(CCCCCCCCCC)C(=O)CN(CCCCCCCCCC)C(=O)CN(CCCCCCCCCC)C(=O)CN(CCc1ccccc1)C(=O)CN(CCc1ccccc1)C(=O)CN(CC1CCCN1)C(=O)CN(CCc1ccccc1)C(=O)CN(CCc1ccccc1)C(=O)CN(CC1CCCN1)C(=O)CN(CCc1ccccc1)C(=O)CN(CCc1ccccc1)C(=O)CN(CC1CCCN1)C(=O)CN(CCc1ccccc1)C(=O)CN(CCc1ccccc1)C(=O)CNCC1CCCN1 (stereo not shown) [Compound 35] | 1.22E+03 | 1.60E+03
